{"source": "ChEMBL document CHEMBL1137200", "about": "“Discovery of a Subnanomolar helical D-tridecapeptide inhibitor of gamma-secretase” (J Med Chem, 2004)", "key": {"[1]": {"target": "Gamma-secretase", "experiment": "Inhibitory activity against Gamma-secretase in detergent-solubilized HeLa cell membranes with recombinant APP-based substrate"}, "[2]": {"target": "Gamma-secretase", "experiment": "Inhibitory activity against Gamma-secretase from APP-transfected CHO cells", "type": "functional, cell-based, Homo sapiens"}}}
{"compound": "CC[C@H](C)[C@H](NC(=O)[C@@H](NC(=O)[C@@H](NC(=O)C(C)(C)NC(=O)CNC(=O)[C@@H](NC(=O)C(C)(C)NC(=O)[C@H](CC(C)C)NC(=O)OC(C)(C)C)C(C)C)C(C)C)C(C)C)C(=O)NC(C)(C)C(=O)N[C@H](C(=O)N[C@H](C(=O)NC(C)(C)C(=O)N[C@H](C(=O)N[C@H](C(=O)NC(C)(C)C(=O)OC)[C@@H](C)CC)C(C)C)C(C)C)[C@@H](C)OCc1ccccc1", "values": [{"measurement": "IC50", "setting": "[1]", "value": 4700, "unit": "nM"}]}
{"compound": "CC[C@H](C)[C@H](NC(=O)[C@@H](NC(=O)[C@@H](NC(=O)C(C)(C)NC(=O)CNC(=O)[C@@H](NC(=O)C(C)(C)NC(=O)[C@H](CC(C)C)NC(=O)CNC(=O)OC(C)(C)C)C(C)C)C(C)C)C(C)C)C(=O)NC(C)(C)C(=O)N[C@H](C(=O)N[C@H](C(=O)NC(C)(C)C(=O)N[C@H](C(=O)N[C@H](C(=O)NC(C)(C)C(=O)OC)[C@@H](C)CC)C(C)C)C(C)C)[C@@H](C)OCc1ccccc1", "values": [{"measurement": "IC50", "setting": "[1]", "value": 11000, "unit": "nM"}]}
{"compound": "CC[C@@H](C)[C@@H](NC(=O)[C@H](NC(=O)[C@H](NC(=O)C(C)(C)NC(=O)CNC(=O)OC(C)(C)C)C(C)C)C(C)C)C(=O)NC(C)(C)C(=O)N[C@@H](C(=O)N[C@@H](C(=O)NC(C)(C)C(=O)N[C@@H](C(=O)N[C@@H](C(=O)NC(C)(C)C(=O)OC)[C@H](C)CC)C(C)C)C(C)C)[C@H](C)OCc1ccccc1", "values": [{"measurement": "IC50", "setting": "[1]", "value": 12, "unit": "nM"}]}
{"compound": "CC[C@@H](C)[C@@H](NC(=O)[C@H](NC(=O)[C@H](NC(=O)C(C)(C)NC(=O)CNC(=O)[C@H](NC(=O)OC(C)(C)C)C(C)C)C(C)C)C(C)C)C(=O)NC(C)(C)C(=O)N[C@@H](C(=O)N[C@@H](C(=O)NC(C)(C)C(=O)N[C@@H](C(=O)N[C@@H](C(=O)NC(C)(C)C(=O)OC)[C@H](C)CC)C(C)C)C(C)C)[C@H](C)OCc1ccccc1", "values": [{"measurement": "IC50", "setting": "[2]", "value": 9, "unit": "nM"}, {"measurement": "IC50", "setting": "[1]", "value": 0.14, "unit": "nM"}]}
{"compound": "CC[C@@H](C)[C@@H](NC(=O)[C@H](NC(=O)[C@H](NC(=O)C(C)(C)NC(=O)CNC(=O)[C@H](NC(=O)C(C)(C)NC(=O)OC(C)(C)C)C(C)C)C(C)C)C(C)C)C(=O)NC(C)(C)C(=O)N[C@@H](C(=O)N[C@@H](C(=O)NC(C)(C)C(=O)N[C@@H](C(=O)N[C@@H](C(=O)NC(C)(C)C(=O)OC)[C@H](C)CC)C(C)C)C(C)C)[C@H](C)OCc1ccccc1", "values": [{"measurement": "IC50", "setting": "[1]", "value": 14, "unit": "nM"}]}
{"compound": "CC[C@H](C)[C@H](NC(=O)[C@@H](NC(=O)[C@@H](NC(=O)C(C)(C)NC(=O)CNC(=O)[C@@H](NC(=O)OC(C)(C)C)C(C)C)C(C)C)C(C)C)C(=O)NC(C)(C)C(=O)N[C@H](C(=O)N[C@H](C(=O)NC(C)(C)C(=O)OC)C(C)C)[C@@H](C)OCc1ccccc1", "values": [{"measurement": "IC50", "setting": "[1]", "value": 30000, "unit": "nM"}]}
{"compound": "CC[C@H](C)[C@H](NC(=O)[C@@H](NC(=O)[C@@H](NC(=O)C(C)(C)NC(=O)CNC(=O)OC(C)(C)C)C(C)C)C(C)C)C(=O)NC(C)(C)C(=O)N[C@H](C(=O)N[C@H](C(=O)NC(C)(C)C(=O)N[C@H](C(=O)N[C@H](C(=O)NC(C)(C)C(=O)OC)[C@@H](C)CC)C(C)C)C(C)C)[C@@H](C)OCc1ccccc1", "values": [{"measurement": "IC50", "setting": "[1]", "value": 360, "unit": "nM"}]}
{"compound": "CC[C@H](C)[C@H](NC(=O)[C@@H](NC(=O)[C@@H](NC(=O)C(C)(C)NC(=O)OC(C)(C)C)C(C)C)C(C)C)C(=O)NC(C)(C)C(=O)N[C@H](C(=O)N[C@H](C(=O)NC(C)(C)C(=O)N[C@H](C(=O)N[C@H](C(=O)NC(C)(C)C(=O)OC)[C@@H](C)CC)C(C)C)C(C)C)[C@@H](C)OCc1ccccc1", "values": [{"measurement": "IC50", "setting": "[1]", "value": 3100, "unit": "nM"}]}
{"compound": "CC[C@@H](C)[C@@H](NC(=O)[C@H](NC(=O)[C@H](NC(=O)C(C)(C)NC(=O)CNC(=O)[C@H](NC(=O)C(C)(C)NC(=O)[C@@H](CC(C)C)NC(=O)CNC(=O)OC(C)(C)C)C(C)C)C(C)C)C(C)C)C(=O)NC(C)(C)C(=O)N[C@@H](C(=O)N[C@@H](C(=O)NC(C)(C)C(=O)N[C@@H](C(=O)N[C@@H](C(=O)NC(C)(C)C(=O)OC)[C@H](C)CC)C(C)C)C(C)C)[C@H](C)OCc1ccccc1", "values": [{"measurement": "IC50", "setting": "[1]", "value": 26, "unit": "nM"}]}
{"compound": "CC[C@H](C)[C@H](NC(=O)[C@@H](NC(=O)[C@@H](NC(=O)C(C)(C)NC(=O)CNC(=O)[C@@H](NC(=O)OC(C)(C)C)C(C)C)C(C)C)C(C)C)C(=O)NC(C)(C)C(=O)N[C@H](C(=O)N[C@H](C(=O)NC(C)(C)C(=O)N[C@H](C(=O)N[C@H](C(=O)NC(C)(C)C(=O)OC)[C@@H](C)CC)C(C)C)C(C)C)[C@@H](C)OCc1ccccc1", "values": [{"measurement": "IC50", "setting": "[1]", "value": 780, "unit": "nM"}]}
{"compound": "CC[C@H](C)[C@H](NC(=O)[C@@H](NC(=O)[C@@H](NC(=O)OC(C)(C)C)C(C)C)C(C)C)C(=O)NC(C)(C)C(=O)N[C@H](C(=O)N[C@H](C(=O)NC(C)(C)C(=O)N[C@H](C(=O)N[C@H](C(=O)NC(C)(C)C(=O)OC)[C@@H](C)CC)C(C)C)C(C)C)[C@@H](C)OCc1ccccc1", "values": [{"measurement": "IC50", "setting": "[1]", "value": 10000, "unit": "nM"}]}
{"compound": "CC[C@@H](C)[C@@H](NC(=O)[C@H](NC(=O)[C@H](NC(=O)C(C)(C)NC(=O)CNC(=O)[C@H](NC(=O)OC(C)(C)C)C(C)C)C(C)C)C(C)C)C(=O)NC(C)(C)C(=O)N[C@@H](C(=O)N[C@@H](C(=O)NC(C)(C)C(=O)OC)C(C)C)[C@H](C)OCc1ccccc1", "values": [{"measurement": "IC50", "setting": "[1]", "value": 90, "unit": "nM"}]}
{"compound": "CC[C@@H](C)[C@@H](NC(=O)[C@H](NC(=O)[C@H](NC(=O)OC(C)(C)C)C(C)C)C(C)C)C(=O)NC(C)(C)C(=O)N[C@@H](C(=O)N[C@@H](C(=O)NC(C)(C)C(=O)N[C@@H](C(=O)N[C@@H](C(=O)NC(C)(C)C(=O)OC)[C@H](C)CC)C(C)C)C(C)C)[C@H](C)OCc1ccccc1", "values": [{"measurement": "IC50", "setting": "[1]", "value": 25, "unit": "nM"}]}
{"compound": "CC[C@H](C)[C@H](NC(=O)[C@@H](NC(=O)[C@@H](NC(=O)C(C)(C)NC(=O)CNC(=O)[C@@H](NC(=O)C(C)(C)NC(=O)OC(C)(C)C)C(C)C)C(C)C)C(C)C)C(=O)NC(C)(C)C(=O)N[C@H](C(=O)N[C@H](C(=O)NC(C)(C)C(=O)N[C@H](C(=O)N[C@H](C(=O)NC(C)(C)C(=O)OC)[C@@H](C)CC)C(C)C)C(C)C)[C@@H](C)OCc1ccccc1", "values": [{"measurement": "IC50", "setting": "[1]", "value": 910, "unit": "nM"}]}
{"compound": "CC[C@@H](C)[C@@H](NC(=O)[C@H](NC(=O)[C@H](NC(=O)C(C)(C)NC(=O)CNC(=O)[C@H](NC(=O)C(C)(C)NC(=O)[C@@H](CC(C)C)NC(=O)OC(C)(C)C)C(C)C)C(C)C)C(C)C)C(=O)NC(C)(C)C(=O)N[C@@H](C(=O)N[C@@H](C(=O)NC(C)(C)C(=O)N[C@@H](C(=O)N[C@@H](C(=O)NC(C)(C)C(=O)OC)[C@H](C)CC)C(C)C)C(C)C)[C@H](C)OCc1ccccc1", "values": [{"measurement": "IC50", "setting": "[1]", "value": 16, "unit": "nM"}]}
{"compound": "CC[C@@H](C)[C@@H](NC(=O)[C@H](NC(=O)[C@H](NC(=O)C(C)(C)NC(=O)OC(C)(C)C)C(C)C)C(C)C)C(=O)NC(C)(C)C(=O)N[C@@H](C(=O)N[C@@H](C(=O)NC(C)(C)C(=O)N[C@@H](C(=O)N[C@@H](C(=O)NC(C)(C)C(=O)OC)[C@H](C)CC)C(C)C)C(C)C)[C@H](C)OCc1ccccc1", "note": "(single isomer, unassigned)", "values": [{"measurement": "IC50", "setting": "[1]", "value": 28, "unit": "nM"}]}
